{"source": "patent US20070104792A1", "about": "“Nanoparticulate tadalafil formulations” (Elan Pharma International, Limited, priority 2005, published 2007)", "origin": "cited, not measured here", "settings": "conventional crystalline solid"}
{"compound": "CN1CC(=O)N2[C@H](c3ccc4c(c3)OCO4)c3[nH]c4ccccc4c3C[C@@H]2C1=O", "note": "[tadalafil, pyrazino[1′,2′:1,6]pyrido[3,4-b]indole-1,4-dione, 6-(1,3-benzodioxol-5-yl)-2,3,6,7,12,12a-hexahydro-2-methyl-, (6R,12aR)]", "values": [{"measurement": "Solubility in ethanol", "setting": "ethanol", "result": "very slightly soluble in ethanol"}, {"measurement": "Solubility in water", "setting": "water", "result": "practically insoluble in water"}]}
